Source: patent US5112806A, “Antibiotic, mersacidin, a process for the preparation thereof and the use thereof as a pharmaceutical” (Hoechst Aktiengesellschaft, priority 1988, dated 1992)

Experiments:
[1] = system: S. aureus SG 511; experiment: In vivo activity against S. aureus SG 511 infection in mice; conditions: mice, S. aureus SG 511, 1.75 × 10^9 CFU/mouse
[2] = system: S. aureus SG 511; experiment: as above; conditions: S. aureus SG 511, 1.75 × 10^9 CFU/mouse
Experimental: On subcutaneous administration in a dose of 9.37 and 25.00 mg/kg to laboratory mice infected experimentally with Staphylococcus aureus SG 511 and S. aureus 710 (resistant to methicillin), […].
In vivo activity of mersacidin against S. aureus SG 511
infection in mice compared with vancomycin.
Inoculation medium used: 1.75 × 10^9 CFU/mouse

[3] = system: S. aureus SG 511; experiment: In vivo activity against S. aureus SG 511 abscess in rats; conditions: infecting dose 2 × 10^-9 CFU in 5% mucin under the skin, 50 mg/kg × 7 days
Experimental: In vivo activity of mersacidin against S. aureus SG 511 abscess in rats, compared with vancomycin.
Infecting dose : […] in 5% mucin, injected under the skin.
Treatment: 50 mg/kg × 7 days

[4] = system: S. aureus E 710 (MRSA); experiment: In vivo activity against S. aureus E 710 (MRSA) in mice; conditions: S. aureus E 710 (MRSA), 5 × 10^9 CFU/mouse (1 MLD)
Experimental: On subcutaneous administration in a dose of 9.37 and 25.00 mg/kg to laboratory mice infected experimentally with Staphylococcus aureus SG 511 and S. aureus 710 (resistant to methicillin), […]. […]

## CN[C@H](CC(C)C)C(=O)N[C@H]1C(=O)N[C@@H](CC(N)=O)C(=O)N[C@H]2C(=O)N[C@H]3C(=O)N[C@H](C(=O)N[C@H](C(=O)O)c4cc(O)cc(O)c4-c4cc3ccc4O)[C@H](O)c3ccc(c(Cl)c3)Oc3cc2cc(c3O[C@@H]2O[C@H](CO)[C@@H](O)[C@H](O)[C@H]2O[C@H]2C[C@](C)(N)[C@H](O)[C@H](C)O2)Oc2ccc(cc2Cl)[C@H]1O [Vancomycin, reference compound]
[1]; 3.12 mg/kg × 3, s.c.
  Number of mice treated/cured: 2/41
  percentage rate of cure: 5%
[1]; 6.25 mg/kg × 3, s.c.
  Number of mice treated/cured: 13/44
  percentage rate of cure: 29%
[1]; 12.5 mg/kg × 3, s.c.
  Number of mice treated/cured: 59/61
  percentage rate of cure: 97%
[1]; 18.75 mg/kg × 3, s.c.
  Number of mice treated/cured: 71/71
  percentage rate of cure: 100%
[2]; 9.37 mg/kg × 3, s.c.
  Number of mice treated/cured: 48/53
  percentage rate of cure: 85%
[2]; s.c.
  Approx. ED50: ~7.20 mg/kg × 3
  Approx. ED90: ~9.37 mg/kg × 3
[3]
  reduces bacterial counts by: 0.79 log10 CFU/ml
[4]; 6.25 mg/kg × 3, s.c.
  Number of mice treated/cured: 0/11
  percentage rate of cure: 0%
[4]; 12.50 mg/kg × 3, s.c.
  Number of mice treated/cured: 3/11
  percentage rate of cure: 27%
[4]; 25.00 mg/kg × 3, s.c.
  Number of mice treated/cured: 14/21
  percentage rate of cure: 67%
[4]; 37.00 mg/kg × 3, s.c.
  Number of mice treated/cured: 6/6
  percentage rate of cure: 100%
[4]; s.c.
  Approx. ED50: ~18.94 mg/kg × 3
  Approx. ED90: ~32.01 mg/kg × 3
